Molecular target: T1, hMAGL (Homo sapiens, UniProt Q99685)
T1 sequence (Q99685 1-303): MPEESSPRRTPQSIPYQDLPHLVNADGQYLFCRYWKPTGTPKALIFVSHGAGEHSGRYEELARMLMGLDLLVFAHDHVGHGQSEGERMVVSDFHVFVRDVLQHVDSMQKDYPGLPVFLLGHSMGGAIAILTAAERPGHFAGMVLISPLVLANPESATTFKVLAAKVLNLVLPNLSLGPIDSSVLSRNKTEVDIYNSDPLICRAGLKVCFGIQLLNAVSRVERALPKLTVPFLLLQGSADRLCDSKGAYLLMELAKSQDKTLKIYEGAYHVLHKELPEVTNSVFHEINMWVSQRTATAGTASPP
Assay: 2-AG assay: MAGL inhibition, hydrolysis of 2-arachidonoylglycerol to arachidonic acid followed by mass spectrometry
Format: biochemical
Outline: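 MAGL preincubated with compound 15 min at RT in 50 mM Tris, 1 mM EDTA, 0.01% Tween-20, 2.5% DMSO; reaction started with 8 μM 2-AG (final), […], 30 min at RT. Quenched with acetonitrile containing d8-arachidonic acid; arachidonic acid quantified by RapidFire SPE-triple quad MS as arachidonic acid/d8 ratio.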

Row | SMILES | IC50
1 | O=C(N1CC2(CC(n3cnc(C(F)(F)F)n3)C2)C1)N1CC2(CN(Cc3nc[nH]c3C(F)(F)F)C2)C1 [Example 237, [6-[[5-(trifluoromethyl)-1H-imidazol-4-yl]methyl]-2,6-diazaspiro[3.3]heptan-2-yl]-[6-[3-(trifluoromethyl)-1,2,4-triazol-1-yl]-2-azaspiro[3.3]heptan-2-yl]methanone] | 158 nM
2 | O=C(N1CC2(CC(n3cnc(C(F)(F)F)n3)C2)C1)N1CC2(CN(Cc3snnc3C3CCC3)C2)C1 [Example 76, [6-[(4-cyclobutylthiadiazol-5-yl)methyl]-2,6-diazaspiro[3.3]heptan-2-yl]-[6-[3-(trifluoromethyl)-1,2,4-triazol-1-yl]-2-azaspiro[3.3]heptan-2-yl]methanone] | 5.73 nM
3 | O=C(N1CC2(CC(n3cnc(C(F)(F)F)n3)C2)C1)N1CC2(CN(Cc3cc(C4CCC4)[nH]n3)C2)C1 [Example 273, [6-[(5-cyclobutyl-1H-pyrazol-3-yl)methyl]-2,6-diazaspiro[3.3]heptan-2-yl]-[6-[3-(trifluoromethyl)-1,2,4-triazol-1-yl]-2-azaspiro[3.3]heptan-2-yl]methanone] | 12 nM
4 | O=C(N1CC2(CC(n3cnc(C4CC4)n3)C2)C1)N1CC2(CN(Cc3cnn(C(F)F)c3)C2)C1 [Example 263, [6-(3-cyclopropyl-1,2,4-triazol-1-yl)-2-azaspiro[3.3]heptan-2-yl]-[6-[[1-(difluoromethyl)pyrazol-4-yl]methyl]-2,6-diazaspiro[3.3]heptan-2-yl]methanone] | 102 nM
5 | O=C(N1CC2(CC(n3cnc(C4CC4)n3)C2)C1)N1CC2(CN(Cc3nc(CC(F)(F)F)no3)C2)C1 [Example 207, [6-(3-cyclopropyl-1,2,4-triazol-1-yl)-2-azaspiro[3.3]heptan-2-yl]-[6-[[3-(2,2,2-trifluoroethyl)-1,2,4-oxadiazol-5-yl]methyl]-2,6-diazaspiro[3.3]heptan-2-yl]methanone] | 25.6 nM
6 | O=C(N1CC2(CC(n3cnc(C4CC4)n3)C2)C1)N1CC2(CN(Cc3ccnn3CC(F)F)C2)C1 [Example 261, [6-(3-cyclopropyl-1,2,4-triazol-1-yl)-2-azaspiro[3.3]heptan-2-yl]-[6-[[2-(2,2-difluoroethyl)pyrazol-3-yl]methyl]-2,6-diazaspiro[3.3]heptan-2-yl]methanone] | 95.7 nM

The next lines start with the values.

Row | IC50 | SMILES
7 | 5.1 nM | O=C(N1CC2(CC(Cn3ccc(C(F)(F)F)n3)C2)C1)N1CC2(CC(n3cnc(C4(O)CC4)n3)C2)C1 [Example 293, [6-[3-(1-hydroxycyclopropyl)-1,2,4-triazol-1-yl]-2-azaspiro[3.3]heptan-2-yl]-[6-[[3-(trifluoromethyl)pyrazol-1-yl]methyl]-2-azaspiro[3.3]heptan-2-yl]methanone]
8 | 42.8 nM | O=C(N1CC2(CC(n3cnc(C4CC4)n3)C2)C1)N1CC2(CN(Cc3nc[nH]c3C(F)(F)F)C2)C1 [Example 238, [6-(3-cyclopropyl-1,2,4-triazol-1-yl)-2-azaspiro[3.3]heptan-2-yl]-[6-[[5-(trifluoromethyl)-1H-imidazol-4-yl]methyl]-2,6-diazaspiro[3.3]heptan-2-yl]methanone]
9 | 13.6 nM | CC(C)(C)n1nccc1CN1CC2(C1)CN(C(=O)N1CC3(CC(n4cnc(C5CC5)n4)C3)C1)C2 [Example 276, [6-[(2-tert-butylpyrazol-3-yl)methyl]-2,6-diazaspiro[3.3]heptan-2-yl]-[6-(3-cyclopropyl-1,2,4-triazol-1-yl)-2-azaspiro[3.3]heptan-2-yl]methanone]
10 | 23.4 nM | O=C(N1CC2(CC(c3cc(C4CC4)n[nH]3)C2)C1)N1CC2(CN(Cc3cnn(C(F)(F)F)c3)C2)C1 [Example 180, [6-(3-cyclopropyl-1H-pyrazol-5-yl)-2-azaspiro[3.3]heptan-2-yl]-[6-[[1-(trifluoromethyl)pyrazol-4-yl]methyl]-2,6-diazaspiro[3.3]heptan-2-yl]methanone]
11 | 2.08 nM | O=C(N1CC2(CC(Cc3cc(C(F)(F)F)nn3CC(F)(F)F)C2)C1)N1CC2(CC(n3cnc(C4(O)CC4)n3)C2)C1 [Example 139]

Reference: patent US20260374756A1, “HETEROCYCLIC COMPOUNDS AS INHIBITORS OF MONOACYLGLYCEROL LIPASE (MAGL)” (Hoffmann-La Roche Inc., priority 2022, published 2026)
